Assay in all cases: relative viability (nuclei count vs DMSO), 5 days (fraction); higher = more cells survive
Compound in assay [1]: O=C(CCCCCCNC(=O)c1cnc(N(c2ccccc2)c2ccccc2)nc1)NO [Ricolinostat] + CS(=O)(=O)N1CCN(Cc2cc3nc(-c4cccc5[nH]ncc45)nc(N4CCOCC4)c3s2)CC1 [Pictilisib] (partner 1 µM)
Put shortly: (§1)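 Values are medians from duplicate plates. Each reflects relative viability, defined as the nuclei count of treated wells over that of vehicle wells. Lung cancer cell lines in 1536-well plates were pin-tool dosed one day after seeding with one drug alone or with a fixed anchor-drug dose plus five library-drug doses (not always all listed) in √10 steps, then fixed, stained and imaged at 4× after 5 days.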

Compound in the assay “Ricolinostat + Foretinib”: O=C(CCCCCCNC(=O)c1cnc(N(c2ccccc2)c2ccccc2)nc1)NO [Ricolinostat] + COc1cc2c(Oc3ccc(NC(=O)C4(C(=O)Nc5ccc(F)cc5)CC4)cc3F)ccnc2cc1OCCCN1CCOCC1 [Foretinib] (partner 0.25 µM)
Summed up:
as §1

Compound in assay [2]: O=C(CCCCCCNC(=O)c1cnc(N(c2ccccc2)c2ccccc2)nc1)NO [Ricolinostat] + CC(=O)c1c(C)c2cnc(Nc3ccc(N4CCNCC4)cn3)nc2n(C2CCCC2)c1=O [Palbociclib] (partner 0.5 µM)
Summed up:
as §1

Compound in the assay “TGX 221 + OSI-027”: CC1=CN2C(=O)C=C(N=C2C(=C1)C(C)NC3=CC=CC=C3)N4CCOCC4 [TGX 221] + COc1cccc2cc(-c3nc([C@H]4CC[C@H](C(=O)O)CC4)n4ncnc(N)c34)[nH]c12 [OSI-027] (partner 0.5 µM)
Put shortly: as §1

The results in this text go back to the supplement of paper PMC10307832.

Consider ChaGo-K-1, for which the relative viability in assay [1] (first compound 0.08 µM) is 0.916; in assay [1] (first compound 0.253 µM) it was 0.676; in assay [1] (first compound 0.8 µM), 0.616; in assay [1] (first compound 2.53 µM), 0.625; in the assay with Ricolinostat + Foretinib (first compound 0.08 µM) it was 0.895; with Ricolinostat + Foretinib (first compound 0.253 µM) it was 0.912. Moreover, the relative viability was determined as 0.861 with Ricolinostat + Foretinib (first compound 0.8 µM); 0.86 with Ricolinostat + Foretinib (first compound 2.53 µM); 0.93 in assay [2] (first compound 0.08 µM); 0.947 in assay [2] (first compound 0.253 µM); 0.901 in assay [2] (first compound 0.8 µM); 0.837 in assay [2] (first compound 2.53 µM). Besides, the relative viability with TGX 221 + OSI-027 (first compound 0.08 µM) is 0.529; in the assay with TGX 221 + OSI-027 (first compound 0.253 µM), 0.547; with TGX 221 + OSI-027 (first compound 0.8 µM), 0.581; with TGX 221 + OSI-027 (first compound 2.53 µM) it was 0.474; with TGX 221 + OSI-027 (first compound 8 µM) it was 0.64.
As for EBC-1, the relative viability in assay [1] (first compound 0.08 µM) came out at 0.372; in assay [1] (first compound 0.253 µM), 0.403; in assay [1] (first compound 0.8 µM), 0.26; in assay [1] (first compound 2.53 µM) it was 0.165; in the assay with Ricolinostat + Foretinib (first compound 0.08 µM) it was 0.0899; with Ricolinostat + Foretinib (first compound 0.253 µM), 0.101. The values for the relative viability with Ricolinostat + Foretinib (first compound 0.8 µM) and in the assay with Ricolinostat + Foretinib (first compound 2.53 µM) were 0.0995 and 0.0994, respectively.
Turning to EKVX, the relative viability in assay [1] (first compound 0.253 µM) turned out to be 0.444; in assay [1] (first compound 0.8 µM) it was 0.456; in assay [1] (first compound 2.53 µM), 0.378; in the assay with Ricolinostat + Foretinib (first compound 0.08 µM), 0.845; in the assay with Ricolinostat + Foretinib (first compound 0.253 µM) it was 0.846; with Ricolinostat + Foretinib (first compound 2.53 µM) it was 0.725. Moreover, the relative viability turned out to be 0.358 in assay [2] (first compound 0.08 µM); 0.42 in assay [2] (first compound 0.253 µM); 0.408 in assay [2] (first compound 0.8 µM); 0.422 in assay [2] (first compound 2.53 µM); 0.697 with TGX 221 + OSI-027 (first compound 0.08 µM); 0.708 with TGX 221 + OSI-027 (first compound 0.253 µM). Besides, the relative viability with TGX 221 + OSI-027 (first compound 0.8 µM) worked out at 0.698; in the assay with TGX 221 + OSI-027 (first compound 2.53 µM) it was 0.687; in the assay with TGX 221 + OSI-027 (first compound 8 µM), 0.672.
With EMC-BAC-2, the relative viability stood at 0.433 in assay [1] (first compound 0.08 µM); 0.578 in assay [1] (first compound 0.253 µM); 0.558 in assay [1] (first compound 0.8 µM); 0.442 in assay [1] (first compound 2.53 µM); 0.905 in the assay with Ricolinostat + Foretinib (first compound 0.08 µM); 1.03 with Ricolinostat + Foretinib (first compound 0.253 µM). Moreover, the relative viability with Ricolinostat + Foretinib (first compound 0.8 µM) was determined as 0.942; with Ricolinostat + Foretinib (first compound 2.53 µM), 0.851; in assay [2] (first compound 0.08 µM), 0.525; in assay [2] (first compound 0.253 µM) it was 0.496; in assay [2] (first compound 0.8 µM) it was 0.47; in assay [2] (first compound 2.53 µM) it was 0.405. Further, the relative viability in the assay with TGX 221 + OSI-027 (first compound 0.08 µM) turned out to be 0.376; with TGX 221 + OSI-027 (first compound 0.253 µM), 0.443; with TGX 221 + OSI-027 (first compound 0.8 µM) it was 0.348; in the assay with TGX 221 + OSI-027 (first compound 2.53 µM), 0.359; in the assay with TGX 221 + OSI-027 (first compound 8 µM), 0.366.
For the cell line EPLC-272H, the relative viability in assay [1] (first compound 0.253 µM) stood at 0.343; in assay [1] (first compound 0.8 µM), 0.285; in assay [1] (first compound 2.53 µM), 0.355; with Ricolinostat + Foretinib (first compound 0.08 µM), 0.632; in the assay with Ricolinostat + Foretinib (first compound 0.253 µM), 0.704; with Ricolinostat + Foretinib (first compound 0.8 µM) it was 0.442. Further, the relative viability with Ricolinostat + Foretinib (first compound 2.53 µM) stood at 0.354; in assay [2] (first compound 0.253 µM), 0.325; in assay [2] (first compound 0.8 µM) it was 0.332; in assay [2] (first compound 2.53 µM), 0.237; with TGX 221 + OSI-027 (first compound 0.08 µM), 0.273; with TGX 221 + OSI-027 (first compound 0.253 µM), 0.28. Moreover, the relative viability turned out to be 0.244 in the assay with TGX 221 + OSI-027 (first compound 0.8 µM), 0.293 with TGX 221 + OSI-027 (first compound 2.53 µM) and 0.316 in the assay with TGX 221 + OSI-027 (first compound 8 µM).
H3255: the relative viability in assay [1] (first compound 0.08 µM) stood at 0.387; in assay [1] (first compound 0.253 µM) it was 0.418; in assay [1] (first compound 0.8 µM), 0.484; in assay [1] (first compound 2.53 µM) it was 0.484; in the assay with Ricolinostat + Foretinib (first compound 0.08 µM), 0.626; with Ricolinostat + Foretinib (first compound 0.253 µM) it was 0.962. Further, the relative viability in the assay with Ricolinostat + Foretinib (first compound 0.8 µM) was found to be 0.685; with Ricolinostat + Foretinib (first compound 2.53 µM), 0.589; in assay [2] (first compound 0.08 µM) it was 0.336; in assay [2] (first compound 0.253 µM) it was 0.307; in assay [2] (first compound 0.8 µM), 0.292; in assay [2] (first compound 2.53 µM), 0.33. For the same cell line, the relative viability with TGX 221 + OSI-027 (first compound 0.08 µM) is 0.535; with TGX 221 + OSI-027 (first compound 0.253 µM), 0.593; with TGX 221 + OSI-027 (first compound 0.8 µM), 0.506; with TGX 221 + OSI-027 (first compound 2.53 µM) it was 0.539; with TGX 221 + OSI-027 (first compound 8 µM), 0.571.
With HARA, the relative viability in assay [1] (first compound 0.08 µM) amounted to 0.208; in assay [1] (first compound 0.253 µM), 0.481; in assay [1] (first compound 0.8 µM) it was 0.503; in assay [1] (first compound 2.53 µM) it was 0.203; with Ricolinostat + Foretinib (first compound 0.08 µM) it was 0.968; in the assay with Ricolinostat + Foretinib (first compound 0.253 µM), 0.901. The relative viability amounted to 0.767 in the assay with Ricolinostat + Foretinib (first compound 0.8 µM); 0.646 with Ricolinostat + Foretinib (first compound 2.53 µM); 0.269 in assay [2] (first compound 0.08 µM); 0.288 in assay [2] (first compound 0.253 µM); 0.238 in assay [2] (first compound 0.8 µM); 0.248 in assay [2] (first compound 2.53 µM). For the same cell line, the relative viability with TGX 221 + OSI-027 (first compound 0.08 µM) turned out to be 0.447; with TGX 221 + OSI-027 (first compound 0.253 µM), 0.493; with TGX 221 + OSI-027 (first compound 0.8 µM), 0.526; with TGX 221 + OSI-027 (first compound 2.53 µM), 0.501; in the assay with TGX 221 + OSI-027 (first compound 8 µM), 0.471.
As to HCC-15, the relative viability in assay [1] (first compound 0.08 µM) is 0.647; in assay [1] (first compound 0.253 µM) it was 0.79; in assay [1] (first compound 0.8 µM), 0.779; in assay [1] (first compound 2.53 µM) it was 0.617; in the assay with Ricolinostat + Foretinib (first compound 0.08 µM) it was 0.876; with Ricolinostat + Foretinib (first compound 0.253 µM) it was 1.03. Besides, the relative viability in the assay with Ricolinostat + Foretinib (first compound 0.8 µM) worked out at 1.05; with Ricolinostat + Foretinib (first compound 2.53 µM) it was 1.05; in assay [2] (first compound 0.08 µM), 0.779; in assay [2] (first compound 0.253 µM), 0.739; in assay [2] (first compound 0.8 µM), 0.685; in assay [2] (first compound 2.53 µM), 0.606. The relative viability in the assay with TGX 221 + OSI-027 (first compound 0.08 µM) was found to be 0.672; with TGX 221 + OSI-027 (first compound 0.253 µM) it was 0.713; in the assay with TGX 221 + OSI-027 (first compound 0.8 µM), 0.754; in the assay with TGX 221 + OSI-027 (first compound 2.53 µM) it was 0.592; with TGX 221 + OSI-027 (first compound 8 µM), 0.681.
Regarding HCC-44, the relative viability in assay [1] (first compound 0.08 µM) was determined as 0.551; in assay [1] (first compound 0.253 µM), 0.673; in assay [1] (first compound 0.8 µM) it was 0.635; in assay [1] (first compound 2.53 µM), 0.424; in assay [2] (first compound 0.08 µM), 0.91; in assay [2] (first compound 0.253 µM), 0.935. The relative viability in assay [2] (first compound 0.8 µM) was 1.01; in assay [2] (first compound 2.53 µM), 0.964; with TGX 221 + OSI-027 (first compound 0.253 µM), 0.417; with TGX 221 + OSI-027 (first compound 0.8 µM), 0.51; with TGX 221 + OSI-027 (first compound 2.53 µM) it was 0.543; with TGX 221 + OSI-027 (first compound 8 µM), 0.41.
